The subject of experiment [1] is TLR7 induced IL-6 secretion in human mononuclear cells (PBMC's). The experiment can be described thus: TLR7 induced IL-6 in Human PBMC's. The format is cell-based. Conditions: TLR7 specific ligand 2 uM overnight, IL-6 Alpha LISA. The method, then: TLR7 induced IL-6 in Human PBMC's
Human PBMC assay was used as one of the functional assays to monitor the activity of IRAK1 and IRAK4 small molecule inhibitors on TLR7 induced IL-6 secretion in human mononuclear cells (PBMC's). Human PBMCs were prepared from buffy coats (whole blood enriched with leukocytes and platelets) obtained from healthy volunteers used either fresh or frozen are plated in assay media (RPMI+2% P/S/L-glu+10% HI-FBS) and pre-treated with compounds in DMSO/media (range of concentrations from 25 uM to 0.4 nM) or controls (0.25% DMSO) for 30 minutes at 37° C. in assay media. Following pre-treatment with IRAK1 and IRAK4 inhibitors, PBMC's were stimulated with TLR7 specific ligand (2 uM) overnight (16-18 hrs) at 37° C. After incubation supernatant was transferred to 384 well PE AlphaPlate-384 (6005350) and IL-6 is quantified using Perkin Elmer IL-6 Alpha LISA kit (AL223C). Plates were read on an Envision® plate reader with Alpha Technology®.
(Bead proximity is the source of the signal in Alpha formats.)

Another experiment deals with IRAK4 (Homo sapiens, UniProt Q9NWZ3). The experiment can be described thus: IRAK4 Enzymatic Assay. The format is biochemical. Conditions: His-TEV-IRAK4, ATP 2 μM, STK1-biotin peptide 300 nM, 3 hours at 30° C. The method, then:
IRAK4 Enzymatic Assay IRAK4 is a human purified recombinant enzyme ([…]. IRAK4 hydrolyses ATP, autophosphorylates and phosphorylates a Serine/Threonine generic peptidic substrate (STK: 61ST1BLC from CisBio International based in Bagnols/Cèze FR). Measurement of IRAK-4 inhibition was performed in streptavidin coated 384 well FlashPlate (PerkinElmer #SM[…]). His-TEV-IRAK4 (20 ng/well), ATP (2 μM, [^33P]ATP 0.25 μCi/well), STK1-biotin peptide (300 nM) and compounds in DMSO (range of concentrations from 20 μM to 1 nM) or controls (2% DMSO) were incubated for 3 hours at 30° C. in assay buffer: Hepes pH7.0 50 mM, Fatty acid-free BSA 0.1%, Dithiothreitol DTT 2 mM, MgCl2 10 mM, EGTA 0.5 mM, Tween-20 0.01%, MnCl2 5 mM. Kinase reaction was stopped by addition of EDTA.

The target of another experiment is IRAK1 (Homo sapiens (Human), UniProt P51617). The experiment can be described thus: IRAK1 Enzymatic Assay. The class given is biochemical. Conditions: His-TEV-IRAK1 (194-712), ATP 1 μM, 3 hours at 30° C. The method, then: IRAK1 is a human purified recombinant enzyme (His-TEV-IRAK1 (194-712)). In this assay, IRAK-1 hydrolyses ATP and autophosphorylates. Measurement of IRAK-1 inhibition was performed in streptavidin coated 384 well FlashPlate (PerkinElmer #SMP410A). His-TEV-IRAK-1 (15 ng/well), ATP (1 μM, [33P]ATP 0.25 μCi/well) and compounds in DMSO (range of concentrations from 20 μM to 1 nM) or controls (2% DMSO) were incubated for 3 hours at 30° C. in assay buffer: Hepes pH7.0 50 mM, Fatty acid-free BSA 0.1%, Dithiothreitol DTT 2 mM, MgCl2 10 mM, EGTA 0.5 mM, Triton-X-100 0.01%. Kinase reaction was stopped by addition of EDTA. Supernatant was discarded, plates were washed three times with 150 mM NaCl and radioactivity was then measured in a Microbeta Trilux reader.
IRAK1, sequence (P51617 194-712): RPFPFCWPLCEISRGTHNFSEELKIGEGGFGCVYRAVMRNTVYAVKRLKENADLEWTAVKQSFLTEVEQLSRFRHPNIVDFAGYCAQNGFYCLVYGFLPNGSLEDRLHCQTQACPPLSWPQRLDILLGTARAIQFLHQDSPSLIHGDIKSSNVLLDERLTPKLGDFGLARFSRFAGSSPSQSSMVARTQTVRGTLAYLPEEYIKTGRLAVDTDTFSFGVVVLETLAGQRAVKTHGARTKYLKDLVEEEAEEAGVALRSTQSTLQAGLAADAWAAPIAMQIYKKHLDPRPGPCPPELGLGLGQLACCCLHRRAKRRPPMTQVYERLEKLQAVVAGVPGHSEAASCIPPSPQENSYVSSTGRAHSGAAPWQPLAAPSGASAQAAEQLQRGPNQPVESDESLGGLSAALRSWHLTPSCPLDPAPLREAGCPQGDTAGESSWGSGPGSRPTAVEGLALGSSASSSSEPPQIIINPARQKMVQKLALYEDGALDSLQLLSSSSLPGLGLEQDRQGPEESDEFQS

Molecules are shown by their SMILES.

IRAK4, sequence (Q9NWZ3 whole entry, looked up): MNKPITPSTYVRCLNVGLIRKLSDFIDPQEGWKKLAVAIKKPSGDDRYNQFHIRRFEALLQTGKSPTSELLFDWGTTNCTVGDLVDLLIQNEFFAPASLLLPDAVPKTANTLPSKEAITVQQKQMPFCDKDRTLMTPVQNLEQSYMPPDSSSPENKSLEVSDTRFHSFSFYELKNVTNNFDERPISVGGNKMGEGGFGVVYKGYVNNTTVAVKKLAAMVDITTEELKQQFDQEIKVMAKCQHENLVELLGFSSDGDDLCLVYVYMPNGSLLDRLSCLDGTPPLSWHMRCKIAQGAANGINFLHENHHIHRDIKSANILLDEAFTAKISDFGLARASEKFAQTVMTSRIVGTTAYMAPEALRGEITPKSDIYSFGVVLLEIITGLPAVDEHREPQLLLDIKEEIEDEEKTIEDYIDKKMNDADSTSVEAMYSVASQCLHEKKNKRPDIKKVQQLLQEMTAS

Take `COc1nc2c(OCC3CCC(=O)N3)cccc2cc1C(N)=O` (stereo not shown) [Compound 1, 2-Methoxy-8-(5-oxo-pyrrolidin-2-ylmethoxy)-quinoline-3-carboxylic acid amide]: the IC50 (as a rule, the concentration that inhibits the measured activity by half) was under 500 nM in experiment [1], under 100 nM against IRAK4 and over 5000 nM against IRAK1.

As for `COc1cc2c(OCC3CCC(=O)N3)cccc2nc1C(N)=O` (stereo not shown) [Compound 2, 3-Methoxy-5-(5-oxo-pyrrolidin-2-ylmethoxy)-quinoline-2-carboxylic acid amide], the IC50 was 100 to 1000 nM against IRAK4 and over 5000 nM at IRAK1.

Consider `COc1nc2c(OC[C@@H]3CCC(=O)N3)cccc2cc1C(N)=O` [Compound 3, 2-Methoxy-8-((S)-5-oxo-pyrrolidin-2-ylmethoxy)-quinoline-3-carboxylic acid amide], for which the IC50 in experiment [1] is under 500 nM; against IRAK4 it was under 100 nM; against IRAK1, 1000 to 5000 nM.

Regarding `CC[C@@H]1[C@H](F)C(=O)N[C@@H]1COc1cccc2cc(C(N)=O)c(OC)nc12` [Compound 4, 8-((2S,3S,4S)-3-Ethyl-4-fluoro-5-oxo-pyrrolidin-2-ylmethoxy)-2-methoxy-quinoline-3-carboxylic acid amide], the IC50 in experiment [1] is under 500 nM; on IRAK4 it was under 100 nM; at IRAK1, 100 to 1000 nM.

Consider `COc1nc2c(OC[C@@H]3CC(F)(F)C(=O)N3)cccc2cc1C(N)=O` [Compound 5, 8-((S)-4,4-Difluoro-5-oxo-pyrrolidin-2-ylmethoxy)-2-methoxy-quinoline-3-carboxylic acid amide], for which the IC50 in experiment [1] was under 500 nM; at IRAK4, under 100 nM; at IRAK1, 1000 to 5000 nM.

Take `CC[C@@H]1[C@H](F)C(=O)N[C@@H]1COc1nccc2cc(C(N)=O)c(OC)nc12` [Compound 6, 8-((2S,3S,4S)-3-Ethyl-4-fluoro-5-oxo-pyrrolidin-2-ylmethoxy)-2-methoxy-[1,7]naphthyridine-3-carboxylic acid amide]: the IC50 against IRAK4 was under 100 nM; against IRAK1, 1000 to 5000 nM.

Source of the values: patent publication US11542246B2, “Quinoline compounds as IRAK inhibitors and uses thereof” (Merck Patent GmbH, priority 2018, dated 2023).
